Reference: patent US20050107289A1, “Anti-microbial peptides and compositions” (priority 2001, published 2005)
Like-named read-outs stand apart in the source and are kept apart here. Non-standard residues stand in square brackets, D forms with d. Residues, ends and D or L forms follow the SMILES beside them. NMeL = CN[C@@H](CC(C)C)C(=O)O

What was measured:
E. coli JM109(DE3) = type: cell-based, Escherichia coli; details: JM109
Experimental: (§1) The antimicrobial activity of the peptides was determined using a broth dilution assay essentially as descried in the guidelines of the National Committee for […] (NCCLS) [National Committee for Clinical Laboratory Standards. Methods for dilution antimicrobial susceptibility tests for bacteria that grow aerobically. Fourth edition. Approved Standard (1997). Document M7-A4. […] The microdilution method has the advantages of requiring less amount of peptide for each assay and the possibility of multiple simultaneous inoculations and was used in most studies. Several of the strains of bacteria tested are further described in Table 3.
(§2) Preparation of peptide solutions. Stock peptide solutions were prepared in 5% DMSO in aq. sucrose (9%). Determination of peptide concentrations was done by quantitative HPLC analysis using known concentrations of internal standards and/or by measuring UV absorption of tryptophane-containing peptide solutions in H2O (λ=280 εTrp: 5690). Serial 2-fold dilutions were made in the above DMSO/aq. sucrose (9%) mixture with concentrations ranging approximately 400-2 μg/ml and aliquots were dispensed in test tubes (100 μl) for the macrodilution test or in microtiter plates (20 μl) for the microdilution assays.
(§3) Inoculum preparation. Overnight cultures of different microorganisms grown in suitable media were diluted 4000 times to an approximate inoculum size of 2.5×10^5 cfu/ml.
(§4) Macrodilution method. Macrodilution methods were performed using procedures similar to those described in the National Committee for Clinical Laboratory Standards. Methods for dilution antimicrobial susceptibility tests for bacteria that grow aerobically. Fourth edition. Approved Standard (1997). Document M7-A4. (NCCLS,Villanova, Pa., 1997). Two ml aliquots of the above inoculum were dispensed to test tubes containing different peptide solutions.
(§5) Microdilution method. Microdilution methods were performed using procedures similar to those described in the National Committee for Clinical Laboratory Standards. Methods for dilution antimicrobial susceptibility tests for bacteria that grow aerobically. Fourth edition. Approved Standard (1997). Document M7-A4.

[1] = test system: S. aureus (MRSA) ATCC 33591; type: cell-based, Staphylococcus aureus; details: for MRSA MIC / S. aureus (MRSA) MIC: ATCC 33591; for MRSA (in vitro activity): Table 9
Procedure, shortened: (§6)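 MIC read from NCCLS-style broth dilution. Peptide concentrations were set by quantitative HPLC or Trp UV absorbance at 280 nm, then serially halved from about 400 to 2 μg/ml in 5% DMSO/9% sucrose. Inoculum: approximately 2.5×10^5 cfu/ml.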

[2] = test system: Bacillus cereus ATCC 11778; type: cell-based
Experimental: as §1, §2, §3, §4, §5

[3] = test system: Streptococcus pneumoniae (ATCC 6301); type: cell-based
Experimental: as §1, §2, §3, §4, §5

[4] = test system: vancomycin-resistant Enterococus faecalis (VRE)(ATCC 51575); type: cell-based, Enterococcus faecalis; parameters: key to VRE (in vitro activity): peptide concentration in μg/ml (broth dilution assay); details: for VRE MIC: ATCC 51575; for VRE (in vitro activity): Table 9
Procedure, shortened: as §6

murine red blood cells = test: Red blood cell hemolysis; type: cell-based, mouse; details: for Hemolysis HD50: red cells of murine
Procedure, shortened: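 Washed murine erythrocytes at 5% in saline with 10% FBS were exposed to serial peptide dilutions for 30 min at 37° C. Supernatant absorbance at 560 nm was read, with saline as 0% and 1% Triton X-100 as 100% hemolysis.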

[5] = media a: anti-microbial media-3 (AM-3)

Row | Compound | E. coli MIC (E. coli JM109(DE3)) | MRSA MIC [1] | MRSA (in vitro activity) [1, 5] | B. cerius MIC [2] | S. pneum. MIC [3] | VRE MIC [4] | VRE (in vitro activity) ([4]; media a: AM-3) | RBC Hemolysis (HD50) (murine red blood cells) | Hemolysis HD50 (murine red blood cells) | S. aureus (MRSA) MIC [1] | MRSA (in vitro activity) ([1]; media b: cation adjusted Meuller Hinton broth (MHBII)) | VRE (in vitro activity) ([4]; media c: Brain Heart Infusion (BHI))
1 | CC(C)C[C@@H]1NC(=O)[C@@H](Cc2c[nH]c3ccccc23)NC(=O)[C@H](CCCCN)NC(=O)[C@@H](CCCNC(=N)N)NC(=O)[C@H](CCCCN)NC(=O)[C@@H](Cc2c[nH]c3ccccc23)NC(=O)[C@H](CC(C)C)NC(=O)[C@@H](Cc2c[nH]cn2)NC1=O [SEQ ID NO:101, [KRKWLHLW]] (cyclo(K[dR]K[dW]L[dH]L[dW])) | 12 µg/mL | 40 µg/mL | 40 | 80 µg/mL | 80 µg/mL | 40 µg/mL | 40 | 100 | 100 µg/mL | – | – | –
2 | CC(C)C[C@H]1NC(=O)[C@H](Cc2c[nH]c3ccccc23)NC(=O)[C@@H](CCCNC(=N)N)NC(=O)[C@H](CCCNC(=N)N)NC(=O)[C@@H](CC(C)C)NC(=O)[C@H](Cc2c[nH]c3ccccc23)NC1=O [SEQ ID NO:115, [RRWLWL]] (cyclo(R[dR]W[dL]W[dL])) | 5 µg/mL | 40 µg/mL | 40 | 24 µg/mL | 12 µg/mL | 100 µg/mL | 100 | 90 | 90 µg/mL | – | – | –
3 | CC(C)C[C@@H](N)C(=O)N[C@@H](Cc1c[nH]c2ccccc12)C(=O)N[C@H](CCCNC(=N)N)C(=O)N[C@@H](CCCNC(=N)N)C(=O)N[C@H](CCCCN)C(=O)N[C@@H](Cc1c[nH]c2ccccc12)C(=O)N[C@H](CC(C)C)C(=O)N[C@@H](Cc1c[nH]c2ccccc12)C(N)=O [SEQ ID NO:137, H-LWRRKWLW-NH2] (H-[dL]W[dR]R[dK]W[dL]W-NH2) | 4 µg/mL | 5 µg/mL | – | 9 µg/mL | 20 µg/mL | 40 µg/mL | – | – | 100 µg/mL | – | – | –
4 | CC(C)C[C@H]1NC(=O)[C@H](CO)NC(=O)[C@@H](CCCCN)NC(=O)[C@H](Cc2c[nH]c3ccccc23)NC(=O)[C@@H](CC(C)C)NC(=O)[C@H](Cc2c[nH]c3ccccc23)NC1=O [SEQ ID NO:28, cyclo-(D-Lys-Ser-D-Leu-Trp-D-Leu-Trp)] (cyclo(S[dL]W[dL]W[dK])) | 100 µg/mL | 100 µg/mL | – | 15 µg/mL | 20 µg/mL | 100 µg/mL | – | 90 | – | 75 µg/mL | 100 | 100
5 | CC(C)C[C@H]1NC(=O)[C@H](Cc2c[nH]c3ccccc23)NC(=O)[C@@H](CCCCN)NC(=O)[C@H](CCCNC(=N)N)NC(=O)[C@@H](CCCNC(=N)N)NC(=O)[C@H](Cc2c[nH]c3ccccc23)NC(=O)[C@@H](CC(C)C)NC(=O)[C@H](CCCCN)NC1=O [SEQ ID NO:111, [RRKWLKLW]] (cyclo([dR]R[dK]W[dL]K[dL]W)) | 6 µg/mL | 12 µg/mL | 12 | 23 µg/mL | 25 µg/mL | 80 µg/mL | 80 | 100 | 100 µg/mL | – | – | –
6 | CC(C)C[C@H]1C(=O)N[C@H](Cc2c[nH]c3ccccc23)C(=O)N(C)[C@@H](CC(C)C)C(=O)N[C@H](Cc2c[nH]c3ccccc23)C(=O)N[C@@H](CCCNC(=N)N)C(=O)N[C@H](CCCNC(=N)N)C(=O)N[C@@H](CCCCN)C(=O)N[C@H](Cc2c[nH]c3ccccc23)C(=O)N1C [SEQ ID NO:139, c[RRKW^MeLW^MeLW]] (cyclo(R[dR]K[dW][NMeL][dW][NMeL][dW])) | 5 µg/mL | 5 µg/mL | – | 5 µg/mL | 10 µg/mL | 30 µg/mL | – | – | 100 µg/mL | – | – | –
7 | CC(C)C[C@H]1NC(=O)[C@H](Cc2c[nH]c3ccccc23)NC(=O)[C@@H](CO)NC(=O)[C@H](CCCCN)NC(=O)[C@@H](CO)NC(=O)[C@H](Cc2c[nH]c3ccccc23)NC(=O)[C@@H](CC(C)C)NC(=O)[C@H](Cc2c[nH]c3ccccc23)NC1=O [SEQ ID NO:5, cyclo-(D-Ser-Lys-D-Ser-Trp-D-Leu-Trp-D-Leu-Trp)] (cyclo(K[dS]W[dL]W[dL]W[dS])) | 100 µg/mL | 20 µg/mL | 20 | > 30 µg/mL | 30 µg/mL | 20 µg/mL | 20 | 30 | – | 10 µg/mL | – | –
